According to patent US11597737B2, “Small molecule inhibitors selective for polo-like kinase proteins” (UNIVERSITY OF SOUTH CAROLINA, priority 2016, dated 2023):
Like-named read-outs stand apart in the source and are kept apart here.

Assays:
[1] = system: HCT-116 (p53−/−) colon cancer cells; experiment: Cell viability assay (MTT), HCT116 p53-/-; assay type: cell-based
Description: HCT-116 (p53+/+ and −/−) colon cancer cells were maintained DMEM (Invitrogen™, Carlsebad, Calif.) supplemented with 10% FBS or Nu-serum (BD™ Biosciences, Franklin Lakes, N.J.) and 1% penicillin/streptomycin (Invitrogen™) in a humidified incubator and 5% C02 at 37° C.
(§1) Exponentially growing cells were plated in 96-well dishes. Dose response curves were used to treat cells for 72 hours with inhibitors. Following the three-day treatment, cell viability was measured using the MTT (3-(4,5-dimethylthiazol-2-yl)-2,5-diphenyltetrazolium bromide) colorimetric assay. Cells were incubated for 3 hours with MTT allowing viable cells to metabolize the tetrazolium dye to a purple colored solution. Absorbance measurements (595 nm) were quantified using a DTX 880 plate reader and IC50 values were generated for FLIPs.

[2] = system: HeLa cervical cancer cells; experiment: Cell viability assay (MTT), HeLa; assay type: cell-based; details: read-out: HeLa
Description: HeLa cervical cancer cells were obtained from ATCC (Manassas, Va.). […] Cells were maintained in DMEM (Invitrogen™, Carlsebad, Calif.) supplemented with 10% FBS or Corning© Nu-Serum™ (BD™ Biosciences, Franklin Lakes, N.J.) and 1% penicillin/streptomycin (Invitrogen™) in a humidified incubator and 5% CO2 at 37° C.
(§2) Exponentially growing cells were plated in 96-well dishes. Dose response curves were used to treat cells for 72 hours with inhibitors. Following the three-day treatment, cell viability was measured using the MTT (3-(4,5-dimethylthiazol-2-yl)-2,5-diphenyltetrazolium bromide) colorimetric assay. Cells were incubated for 3 hours with MTT allowing viable cells to metabolize the tetrazolium dye to a purple colored solution.

[3] = system: KRAS mutant lung cancer (A-549) cells; experiment: Cell viability assay (MTT), A-549; assay type: cell-based
Description: A-549 lung cancer cells were maintained in Hams F-12 1× with glutamine (Corning® Cellgro, Manassas, Va.), and supplemented with 10% FBS or Corning® Nu-Serum™ (BD™ Biosciences, Franklin Lakes, N.J.) and 1% penicillin/streptomycin (Invitrogen™) in a humidified incubator and 5% C02 at 37° C.
as §1

[4] = system: PTEN deficient prostate cancer (PC3) cells; experiment: Cell viability assay (MTT), PC3; assay type: cell-based; details: read-out: PCC-3
Description: PC3 prostate cancer cells were maintained in DMEM (Invitrogen™, Carlsebad, Calif.) supplemented with 10% FBS or Corning® Nu-Serum™ (BD™ Biosciences, Franklin Lakes, N.J.) and 1% penicillin/streptomycin (Invitrogen™) in a humidified incubator and 5% C02 at 37° C.
as §2

[5] = target: T1, PLK1 PBD (367-603) (Homo sapiens, UniProt P53350); experiment: Fluorescence polarization assay, PLK1 PBD; assay type: binding
T1 construct: PLK1 PBD (367-603); purchased BPS Biosciences Inc. (San Diego, Calif.)
T1 sequence (P53350 367-603): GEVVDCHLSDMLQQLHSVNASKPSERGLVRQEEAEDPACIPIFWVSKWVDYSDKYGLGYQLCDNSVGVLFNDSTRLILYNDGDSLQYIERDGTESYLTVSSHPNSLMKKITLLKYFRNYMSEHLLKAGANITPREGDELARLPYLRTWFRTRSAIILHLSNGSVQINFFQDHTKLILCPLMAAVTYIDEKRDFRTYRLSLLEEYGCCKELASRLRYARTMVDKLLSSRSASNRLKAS
Description: (§3) Fluorescence Polarization Assay
(§4) Materials were dissolved in DMSO (10 mM) and diluted from 10 nM to 600 μM (maximum of 6% DMSO tolerance in the assay). […] Incubation was carried out at room temperature for 45 minutes. Fluorescence was measured using a DTX 880 plate reader and Multimode Analysis software (Beckman Coulter, Brea, Calif.). […] Each data point was performed in triplicate for every experiment, and experiments were performed at least three times. An IC50 value for each compound was calculated from linear regression analysis of the plots.

[6] = system: mutant (C67V) PLK1 RPE cells; experiment: Cell viability assay, PLK1 C67V mutant RPE cells; assay type: cell-based; details: FIG. 6-8
Description: (§5) Retinal Pigment Epithelial (RPE) cells were maintained in 1:1 DMEM/Hams F-12 (Invitrogen™, Carlsebad, Calif.; Corning® Cellgro, Manassas, Va.), and supplemented with 10% FBS or Corning® Nu-Serum™ (BD™ Biosciences, Franklin Lakes, N.J.) and 1% penicillin/streptomycin (Invitrogen™) in a humidified incubator and 5% C02 at 37° C.
as §2

[7] = system: PC3 cells; experiment: Cell cycle analysis and BrdU pulse labeling in PC3 cells, FIG. 9-11; assay type: cell-based; details: for cell cycle phenotype (in words): 15 μM
Description: Analysis of Cell Cycle Progression by FACS
Serum-Starved Synchronization
Cells were synchronized in G1 by serum starvation. Briefly, exponentially growing cells were plated overnight. Media (DMEM, 10% FBS, 1% Pen. Strep.) was then removed and replaced with media containing no FBS. Cells were starved for 72 hours then treated for 24 hours with inhibitor. Following treatment, cells were harvested and processed for endpoint experimental analysis.
Ethanol fixative was removed by centrifugation and the cells were washed with 1 mL ice-cold PBS/1% BSA. Cells were denatured by resuspending in 0.2 mg/mL pepsin in 2N HCl and incubated in 37° C. water bath for 15 minutes. Hydrolysis was then terminated by adding 1 M Invitrogen™ Novex® Tris-Glycine. Cells were then washed with PBS/1% BSA then the primary anti-BrdU antibody (1:100 dilution in TBFP; 0.5% Tween-20, 1% BSA, 1% FBS, PBS) was added and cells were incubated for 25 minutes in the dark, at room temperature. […] Cells were washed once more with PBS/1% BSA and re-suspended in DAPI for 30 minutes before being analyzed by flow cytometry.
The PLK1 PBD-inhibitors were analyzed further by cell cycle analysis in PC3 cells (FIG. 9). […] To quantify the percentage of cells actively proliferating (synthesizing their DNA) or arrested Bromodeoxyuridine (BrdU) pulse labeling was carried out and analyzed by flow cytometry.

[8] = target: T2, PLK3 PBD (335-646) (Homo sapiens, UniProt Q9H4B4); experiment: Fluorescence polarization assay, PLK3 PBD; details: PLK3 PBD binding
T2 construct: PLK3 PBD (335-646); purchased BPS Biosciences Inc. (San Diego, Calif.)
T2 sequence (Q9H4B4 335-646): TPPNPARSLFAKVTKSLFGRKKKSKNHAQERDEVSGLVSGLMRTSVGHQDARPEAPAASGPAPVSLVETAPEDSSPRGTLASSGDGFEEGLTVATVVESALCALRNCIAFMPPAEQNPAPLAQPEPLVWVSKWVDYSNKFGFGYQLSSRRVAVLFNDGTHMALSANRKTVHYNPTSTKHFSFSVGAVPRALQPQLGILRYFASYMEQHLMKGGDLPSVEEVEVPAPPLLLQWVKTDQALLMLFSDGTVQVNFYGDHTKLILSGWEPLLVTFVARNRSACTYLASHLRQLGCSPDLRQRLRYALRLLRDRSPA
Description: as §3, §4

[9] = system: WT Retinal Pigment Epithelial (RPE) cells; experiment: Cell viability assay, WT RPE cells; assay type: cell-based; details: FIG. 7, FIG. 8
Description: as §5, §2

[10] = target: T3, full length PLK1 (Homo sapiens, UniProt P53350); experiment: PLK1 kinase inhibition assay (CycLex ELISA); assay type: biochemical; details: 7.5 μM ATP, read-out: PLK1 Kinase Inhibitory Act. IC50
T3 construct: This ELISA assay measures the catalytic activity of full length PLK1 for a defined substrate
T3 sequence (P53350 whole entry): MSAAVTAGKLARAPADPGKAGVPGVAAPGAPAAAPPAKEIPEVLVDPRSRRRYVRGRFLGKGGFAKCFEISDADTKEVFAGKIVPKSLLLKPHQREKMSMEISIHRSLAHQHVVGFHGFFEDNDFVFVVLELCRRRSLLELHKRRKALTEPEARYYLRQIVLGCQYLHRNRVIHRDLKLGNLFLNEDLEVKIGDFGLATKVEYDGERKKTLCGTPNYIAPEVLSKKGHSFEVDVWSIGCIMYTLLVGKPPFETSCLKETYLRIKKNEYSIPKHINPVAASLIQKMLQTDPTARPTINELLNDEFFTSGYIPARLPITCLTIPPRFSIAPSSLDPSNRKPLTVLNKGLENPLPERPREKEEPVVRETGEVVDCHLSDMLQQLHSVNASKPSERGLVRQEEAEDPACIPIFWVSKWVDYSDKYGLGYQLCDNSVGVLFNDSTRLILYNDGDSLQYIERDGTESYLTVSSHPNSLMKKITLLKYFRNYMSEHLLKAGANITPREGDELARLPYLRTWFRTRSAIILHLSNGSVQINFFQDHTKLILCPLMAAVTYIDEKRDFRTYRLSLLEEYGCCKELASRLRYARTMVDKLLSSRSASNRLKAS
Source text: PLK1 Kinase Inhibition Assay
The CycLex® Polo-like Kinase 1 Assay/Inhibitor Screening Kit was used to measure catalytic inhibition (MBL Life Science, Nagano, Japan). This ELISA assay measures the catalytic activity of full length PLK1 for a defined substrate, which is detected by an anti-phospho-threonine antibody (PPT-07) and peroxidase coupled secondary antibody. […] Peroxidase catalyzes the conversion of the colorless solution to yellow, which was quantified using a DTX 880 plate reader. Absorbance measurements (450 nm) were plotted to calculate activity in each sample, and % inhibition was calculated in the wells relative to activity in the absence of inhibitor.

[11] = Cell cycle analysis and caspase apoptosis assay; assay type: cell-based
Source text: Disclosed small molecule inhibitors can also encourage apoptosis.

[12] = Table 1, fluorescence polarization, read-out: PLK1 PBD IC50
[13] = PLK1 PBD binding, fluorescence polarization, read-out: PLK1 IC50

CCCCCCCCc1ccc(C(=O)Nc2cccc(C(F)(F)F)c2C(=O)O)cc1 [SCCP ID No. 5945]
IC50 ([1]; 72 hours): 24.9 ± 2 µM
IC50 ([2]; MTT, 72 hours): 20.1 ± 3.1 µM
IC50 ([3]; 72 hours): 13.3 ± 0.8 µM
IC50 ([4]; MTT, 72 hours): 27.9 ± 2.6 µM

CCCCCCCCc1ccc(C(=O)NCCC(=O)O)cc1 [SCCP ID No. 5975]
IC50 [5, 12]: > 200 µM

CCCCCCc1ccc(C(=O)Nc2cccc(S(N)(=O)=O)c2)cc1 [SCCP ID No. 5908]
IC50 [5, 13]: > 600 µM
binding to the PLK1 PBD (in words) ([5]; fluorescence polarization): No binding was observed

CC[C@@H]1C(=O)N(C)c2cnc(Nc3ccc(C(=O)NC4CCN(C)CC4)cc3OC)nc2N1C1CCCC1 [BI-2536, reference compound]
sensitivity of cells containing mutant (C67V) PLK1 (in words) [6]: resistant
cells accumulate in G2/M ([7]; concentration not given): ~80%

CCCCCCc1ccc(C(=O)Nc2cccc(C(=O)O)c2)cc1 [SCCP ID No. 5903]
IC50 [8]: 43.6 ± 1.69 µM
IC50 [5, 13]: 130 ± 3.6 µM
Selectivity Fold Index ([5]; fold selectivity for PLK1 versus PLK3 PBD): 1.6

CCCCCc1ccc(C(=O)Nc2ccccc2C(=O)O)cc1 [SCCP ID No. 5905]
IC50 [5, 13]: 224 ± 4.88 µM

CCCCCCCCc1ccc(CNc2ccccc2C(=O)O)cc1 [SCCP ID No. 5953]
IC50 [5, 13]: 9.57 ± 2.03 µM

CCCCCCCCc1ccc(C(=O)Nc2cccc(F)c2C(=O)O)cc1 [SCCP ID No. 5932]
IC50 ([1]; 72 hours): 10 ± 2.4 µM
sensitivity of cells containing wild type PLK1 (in words) [9]: sensitive
IC50 ([3]; 72 hours): 2.9 ± 0.5 µM
sensitivity of cells containing mutant (C67V) PLK1 (in words) [6]: sensitive
IC50 ([4]; MTT, 72 hours): 11.6 ± 1.2 µM
IC50 [10]: 48.9 µM
IC50 [5, 13]: 11.1 ± 1.1 µM

CCCCCCc1ccc(C(=O)Nc2ccccc2O)cc1 [SCCP ID No. 5943]
IC50 [5, 13]: > 600 µM
binding to the PLK1 PBD (in words) ([5]; fluorescence polarization): No binding was observed

CCCCCCCCc1ccc(CNc2ccc(C)cc2C(=O)O)cc1 [SCCP ID No. 5961]
IC50 [8]: 157 µM
IC50 [5, 13]: > 600 µM
binding to the PLK1 PBD (in words) ([5]; fluorescence polarization): undetectable

CCCCCCc1ccc(C(=O)Nc2ccc(C)cc2C(=O)O)cc1 [SCCP ID No. 5924]
IC50 [8]: 24.5 µM
IC50 [5, 13]: > 600 µM
binding to the PLK1 PBD (in words) ([5]; fluorescence polarization): no binding to PLK1

CCCCCCc1ccc(C(=O)Nc2ncccc2C(=O)O)cc1 [SCCP ID No. 5904]
IC50 [5, 12]: > 600 µM

CCCCCCCCc1ccc(C(=O)Nc2ccccc2C(=O)O)cc1 [SCCP ID No. 5912]
IC50 ([1]; Homo sapiens, HCT-116, 72 hours): 8 ± 1.7 µM
sensitivity of cells containing wild type PLK1 (in words) [9]: sensitive
IC50 ([3]; Homo sapiens, A549, 72 hours): 2.8 ± 0.1 µM
sensitivity of cells containing mutant (C67V) PLK1 (in words) [6]: sensitive
cell cycle phenotype (in words) [7]: S phase delay
PLK1 versus PLK3 specificity (in words) ([5]; PBD binding): relatively equipotent for PLK1 and PLK3 PBD binding

CCCCCCCCc1ccc(C(=O)Nc2ccc(OC)cc2C(=O)O)cc1 [SCCP ID No. 5935]
cell cycle phenotype (in words) [7]: G1 delay or arrest
IC50 [5, 13]: 5.89 ± 1.25 µM

CCCCCCCCc1ccc(C(=O)NCC(C)C(=O)O)cc1 (centres unmarked) [SCCP ID No. 5976]
IC50 [5, 12]: 343 to 450 µM

CCCCCCCCc1ccc(C(=O)Nc2ccccc2C(=O)OCC)cc1 [SCCP ID No. 5914]
IC50 ([2]; Homo sapiens, HeLa, 72 h): > 100 µM
IC50 ([4]; Homo sapiens, PC-3, 72 h): > 100 µM
levels of apoptosis (in words) [11]: virtually none
IC50 [5, 13]: > 600 µM

CCCCCCc1ccc(C(=O)Nc2ccccc2OP(=O)(O)O)cc1 [SCCP ID No. 5940]
IC50 [5, 13]: > 600 µM
binding to the PLK1 PBD (in words) ([5]; fluorescence polarization): No binding was observed

CCCCCCCCc1ccc(C(=O)NCc2ccccc2C(=O)O)cc1 [SCCP ID No. 5913]
IC50 [5, 12]: 105 µM

CCCCCCCCc1ccc(C(=O)Nc2cc(F)cc(F)c2C(=O)O)cc1 [SCCP ID No. 5938]
IC50 [5, 13]: 30.6 ± 3.2 µM

CCCCCCCCc1ccc(C(=O)Nc2cccc(O)c2C(=O)O)cc1 [SCCP ID No. 5946]
IC50 ([2]; MTT, 72 hours): 33.6 ± 2.6 µM
IC50 ([4]; MTT, 72 hours): 34.2 ± 2.5 µM

CCCCc1ccc(C(=O)Nc2ccc(C(=O)O)cc2)cc1 [SCCP ID No. 5880]
IC50 [5, 13]: > 600 µM
binding to the PLK1 PBD (in words) ([5]; fluorescence polarization): did not bind

CCCCCCc1ccc(C(=O)Nc2ccccc2C(=O)O)cc1 [SCCP ID No. 5881]
binding to the PLK1 PBD (in words) ([5]; fluorescence polarization): low micromolar activity

CCCCCCCCc1ccc(C(=O)Nc2cccc([N+](=O)[O-])c2C(=O)O)cc1 [SCCP ID No. 5939]
IC50 [5, 13]: 6.05 ± 1.9 µM
